What all share (assay): In-house protein microarrays (with or without 5 mM DTT), protein named per line
Holding throughout (type): binding

The target in experiment [1] is T1, SH2 and PTB domains (Homo sapiens, UniProt Q9BRG2).
T1 construct: thioredoxin; made in house; host or cells: BL21(DE3)pLysS E. coli
The conditions noted are these: protein SH2D3A; PM assay replicate # 39307; array fabrication # 39286. The gist of the method: (§1)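 Recombinant domains (~40 µM) spotted in duplicate on aldehyde slides, quenched 1 h at room temperature in HEPES/KCl/Tween-20 buffer pH 7.8 with 5 mM DTT and 1% BSA, then probed with rhodamine-labeled peptide. Thioredoxin-subtracted mean fluorescence fitted for KD.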

Experiment [2] deals with T2, SH2 and PTB domains (Homo sapiens, UniProt P43405).
T2 construct: thioredoxin; made in house; host or cells: BL21(DE3)pLysS E. coli
An outline of the steps:
as §1

For experiment [3], the target named is T3, SH2 and PTB domains (Homo sapiens, UniProt Q92569).
T3 construct: thioredoxin; made in house; host or cells: BL21(DE3)pLysS E. coli
The note with it: protein PIK3R3-NC; PM assay replicate # 39307; array fabrication # 39286. An outline of the steps: as §1

For experiment [4], the target named is T4, SH2 and PTB domains (Homo sapiens, UniProt O43639).
T4 construct: thioredoxin; made in house; host or cells: BL21(DE3)pLysS E. coli
The note with it: protein NCK2; PM assay replicate # 39307; array fabrication # 39286. The gist of the method: as §1

In experiment [5] the target is T5, SH2 and PTB domains (Homo sapiens, UniProt P07947).
T5 construct: thioredoxin; made in house; host or cells: BL21(DE3)pLysS E. coli
The note with it: protein YES1. An outline of the steps:
as §1

Experiment [6] deals with T6, SH2 and PTB domains (Homo sapiens, UniProt P16885).
T6 construct: thioredoxin; made in house; host or cells: BL21(DE3)pLysS E. coli
T6 sequence (P16885 1-1265): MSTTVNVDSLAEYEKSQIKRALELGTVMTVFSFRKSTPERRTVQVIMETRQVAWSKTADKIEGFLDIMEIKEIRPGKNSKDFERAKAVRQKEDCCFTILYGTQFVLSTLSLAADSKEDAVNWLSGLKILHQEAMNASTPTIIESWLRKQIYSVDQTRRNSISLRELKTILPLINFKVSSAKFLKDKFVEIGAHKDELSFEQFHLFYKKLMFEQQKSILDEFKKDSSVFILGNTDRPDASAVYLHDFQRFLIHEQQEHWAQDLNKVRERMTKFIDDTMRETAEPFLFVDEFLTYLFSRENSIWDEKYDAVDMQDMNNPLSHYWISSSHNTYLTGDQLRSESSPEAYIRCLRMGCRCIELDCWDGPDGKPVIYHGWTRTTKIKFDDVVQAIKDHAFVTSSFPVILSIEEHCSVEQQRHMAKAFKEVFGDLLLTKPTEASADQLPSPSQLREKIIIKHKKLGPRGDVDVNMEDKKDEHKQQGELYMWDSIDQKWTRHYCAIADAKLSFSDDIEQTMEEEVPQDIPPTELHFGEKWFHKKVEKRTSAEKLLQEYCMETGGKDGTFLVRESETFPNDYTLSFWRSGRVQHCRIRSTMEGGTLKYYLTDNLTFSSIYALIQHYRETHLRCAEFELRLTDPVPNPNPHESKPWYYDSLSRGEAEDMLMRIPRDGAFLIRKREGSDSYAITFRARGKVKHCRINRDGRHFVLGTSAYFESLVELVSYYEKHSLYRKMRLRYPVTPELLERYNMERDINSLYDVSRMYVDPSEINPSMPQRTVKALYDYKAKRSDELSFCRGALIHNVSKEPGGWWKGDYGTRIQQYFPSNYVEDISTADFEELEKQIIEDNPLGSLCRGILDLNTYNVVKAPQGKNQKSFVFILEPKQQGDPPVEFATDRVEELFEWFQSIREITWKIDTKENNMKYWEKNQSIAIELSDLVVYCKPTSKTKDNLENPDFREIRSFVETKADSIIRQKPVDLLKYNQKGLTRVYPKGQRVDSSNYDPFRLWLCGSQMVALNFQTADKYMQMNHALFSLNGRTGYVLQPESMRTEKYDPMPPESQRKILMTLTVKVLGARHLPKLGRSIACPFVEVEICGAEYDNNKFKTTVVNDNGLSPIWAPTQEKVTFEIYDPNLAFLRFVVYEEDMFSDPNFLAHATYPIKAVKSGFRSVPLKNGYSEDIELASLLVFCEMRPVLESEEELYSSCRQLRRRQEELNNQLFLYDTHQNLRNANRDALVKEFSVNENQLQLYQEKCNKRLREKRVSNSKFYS
The conditions noted are these: protein PLCG2-NC. An outline of the steps: as §1

The target of experiment [7] is T7, SH2 and PTB domains (Homo sapiens, UniProt O60880).
T7 construct: thioredoxin; made in house; host or cells: BL21(DE3)pLysS E. coli
T7 sequence (O60880 1-128): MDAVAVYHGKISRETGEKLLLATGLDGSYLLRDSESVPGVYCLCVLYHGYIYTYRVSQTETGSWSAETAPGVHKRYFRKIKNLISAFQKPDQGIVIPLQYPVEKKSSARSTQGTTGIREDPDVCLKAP
The note with it: protein SH2D1A; PM assay replicate # 39307; array fabrication # 39286. The gist of the method: as §1

Where [8] appears, read: PM assay replicate # 39307, array fabrication # 39286.
The mark [9] stands for this setting: PM assay replicate # 39352, array fabrication # 39336.

Structures are written as SMILES. Residues, ends and D or L forms follow the SMILES beside them.

T5 sequence (P07947 whole entry, the tested form may be a part): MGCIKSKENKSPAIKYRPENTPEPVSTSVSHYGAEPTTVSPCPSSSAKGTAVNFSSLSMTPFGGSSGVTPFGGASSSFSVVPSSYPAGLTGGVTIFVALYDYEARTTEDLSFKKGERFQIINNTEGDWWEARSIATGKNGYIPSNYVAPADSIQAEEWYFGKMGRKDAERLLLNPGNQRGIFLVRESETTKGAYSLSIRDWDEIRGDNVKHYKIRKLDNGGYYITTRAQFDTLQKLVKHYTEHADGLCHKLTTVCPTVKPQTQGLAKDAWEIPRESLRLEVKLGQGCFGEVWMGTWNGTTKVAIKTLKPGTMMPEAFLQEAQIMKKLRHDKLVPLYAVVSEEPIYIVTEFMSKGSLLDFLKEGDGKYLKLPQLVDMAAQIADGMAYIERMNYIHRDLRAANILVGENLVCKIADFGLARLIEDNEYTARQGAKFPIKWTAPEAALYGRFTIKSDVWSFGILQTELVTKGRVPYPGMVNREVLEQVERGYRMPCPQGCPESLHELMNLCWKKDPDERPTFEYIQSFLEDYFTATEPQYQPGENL
T4 sequence (O43639 whole entry, the tested form may be a part): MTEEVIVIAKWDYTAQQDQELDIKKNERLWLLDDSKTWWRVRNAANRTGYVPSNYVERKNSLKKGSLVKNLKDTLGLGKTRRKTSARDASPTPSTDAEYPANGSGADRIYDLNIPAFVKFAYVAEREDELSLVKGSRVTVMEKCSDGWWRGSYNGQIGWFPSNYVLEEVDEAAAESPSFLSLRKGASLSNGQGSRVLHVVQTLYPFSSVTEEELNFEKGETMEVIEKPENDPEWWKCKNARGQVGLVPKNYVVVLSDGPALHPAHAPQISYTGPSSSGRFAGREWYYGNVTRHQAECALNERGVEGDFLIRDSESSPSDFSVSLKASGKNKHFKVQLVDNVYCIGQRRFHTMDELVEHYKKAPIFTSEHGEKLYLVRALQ
T1 sequence (Q9BRG2 whole entry, the tested form may be a part): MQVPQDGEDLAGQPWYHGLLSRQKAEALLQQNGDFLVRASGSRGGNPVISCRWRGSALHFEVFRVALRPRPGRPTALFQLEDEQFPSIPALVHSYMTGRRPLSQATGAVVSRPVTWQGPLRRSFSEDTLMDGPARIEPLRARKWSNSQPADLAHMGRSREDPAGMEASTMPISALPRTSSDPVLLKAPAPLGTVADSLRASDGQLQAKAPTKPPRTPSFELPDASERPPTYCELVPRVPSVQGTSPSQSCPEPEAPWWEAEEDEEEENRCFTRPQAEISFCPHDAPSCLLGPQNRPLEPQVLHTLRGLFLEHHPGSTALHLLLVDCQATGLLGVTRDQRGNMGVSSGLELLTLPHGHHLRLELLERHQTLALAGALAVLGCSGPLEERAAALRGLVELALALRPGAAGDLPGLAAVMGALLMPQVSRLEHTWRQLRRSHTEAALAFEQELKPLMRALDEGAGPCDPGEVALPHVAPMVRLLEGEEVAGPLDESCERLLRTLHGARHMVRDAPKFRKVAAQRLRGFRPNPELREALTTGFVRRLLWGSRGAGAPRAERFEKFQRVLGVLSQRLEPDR

Regarding `CC[C@H](C)[C@H](NC(=O)[C@H](CC(N)=O)NC(=O)[C@H](CC(N)=O)NC(=O)[C@H](CCCCN)NC(=O)[C@H](CC(C)C)NC(=O)[C@H](Cc1ccc(OP(=O)(O)O)cc1)NC(=O)[C@H](CCC(=O)O)NC(=O)[C@H](C)NC(=O)[C@H](CCCCN)NC(=O)CNC(=O)[C@H](CC(C)C)NC(=O)[C@@H](NC(=O)[C@H](CC(N)=O)NC(=O)[C@H](C)NC(=O)[C@@H](N)Cc1ccccc1)[C@@H](C)O)C(=O)N[C@@H](CC(C)C)C(=O)N[C@@H](CO)C(=O)N[C@@H](CC(=O)O)C(=O)O` [ErbB4 pY1221 (18-mer)] (HELM PEPTIDE1{F.A.N.T.L.G.K.A.E.[O=C([C@H](Cc1ccc(OP(=O)(O)O)cc1)N[*:1])[*:2]].L.K.N.N.I.L.S.D}$$$$V2.0), the Kd – broadly, the concentration at which binding is half-saturated – on SH2 and PTB domains [1] was 610 nM; on SH2 and PTB domains [2] (protein SYK-N, PM assay replicate # 39307, array fabrication # 39286), 9490 nM; at SH2 and PTB domains [2] (protein SYK-N, PM assay replicate # 39352, array fabrication # 39336) it was 15600 nM; on SH2 and PTB domains [2] (protein SYK-NC, PM assay replicate # 39307, array fabrication # 39286) it was 290 nM; at SH2 and PTB domains [2] (protein SYK-NC, PM assay replicate # 39351, array fabrication # 39336), 810 nM; at SH2 and PTB domains [2] (protein SYK-NC, PM assay replicate # 39352, array fabrication # 39336), 1290 nM. The “Kd” value on SH2 and PTB domains [3] was found to be 540 nM; on SH2 and PTB domains [4], 210 nM; at SH2 and PTB domains [5] (setting [8]) it was 820 nM; on SH2 and PTB domains [5] (setting [9]), 1320 nM; on SH2 and PTB domains [6] (setting [8]), 1380 nM; on SH2 and PTB domains [6] (setting [9]), 1250 nM. Besides, on SH2 and PTB domains [7], the “Kd” value came to 770 nM.

The values are drawn from article PMC3433420 (PLoS ONE, 2012).
